Data from patent publication US10894788B2, “Inhibitors of cyclin-dependent kinases” (Kinnate Biopharma Inc., priority 2018, dated 2021).

Target: CDK12 wt/CycK (Homo sapiens (Human), UniProt Q9NYV4)
Assay: Radiometric protein kinase assay (33PanQinase Activity Assay), Assay Condition A (thiol containing conditions)
Type: biochemical
Conditions: not given
Method: Example 1—Assay Condition A (Thiol Containing Conditions)
Objective: The IC50 profile of test compounds was determined using three protein kinases.
Test compounds: The compounds were provided as pre-weighed powders in vials. The compounds were dissolved to 1×10^−02M by adding DMSO. 100 μl of each of the resulting stock solutions were transferred into column 2 of four 96 well “master plates”.
Prior to testing, the 1×10^−02M stock solutions in column 2 of the master plates were subjected to a serial, semi-logarithmic dilution using 100% DMSO as a solvent. […] Column 1 and 7 were filled with 100% DMSO as controls. Subsequently, 2×10 μl from each well of the serial diluted copy plates were aliquoted with a 96 channel pipettor into two identical sets of “compound dilution plates”.
In the process, 90 μl H2O were added to each well of a set of compound dilution plates. To minimize potential precipitation, the H2O was added to each plate only a few minutes before the transfer of the compound solutions into the assay plates. Each plate was shaken thoroughly, resulting in a “compound dilution plate/10% DMSO”.
For the assays, 5 μl solution from each well of the compound dilution plates/10% DMSO were transferred into the assay plates. The final volume of the assay was 50 μl. All compounds were tested at 10 final assay concentrations in the range from 1×10^−04M to 3×10^−09M, in singlicate. The final DMSO concentration in the reaction cocktails was 1% in all cases.
Recombinant protein kinases: All protein kinases were expressed in Sf9 insect cells or in E. coli as recombinant GST-fusion proteins or His-tagged proteins, either as full-length or enzymatically active fragments. All kinases were produced from human cDNAs and purified by either GSH-affinity chromatography or immobilized metal. Affinity tags were removed from a number of kinases during purification. The purity of the protein kinases was examined by SDS-PAGE/Coomassie staining, the identity was checked by mass spectroscopy.
Protein kinase assay: A radiometric protein kinase assay (^33PanQinase® Activity Assay) was used for measuring the kinase activity of the three protein kinases. All kinase assays were performed in 96-well FlashPlates™ from PerkinElmer (Boston, Mass., USA) in a 50 μl reaction volume. The reaction cocktail was pipetted in four steps in the following order: • 20 μl of assay buffer (standard buffer) • 5 μl of ATP solution (in H2O) • 5 μl of test compound (in 10% DMSO) • 20 μl enzyme/substrate mix
The following amounts of enzyme and substrate were used per well:
The reaction cocktails were incubated at 30° C. for 60 minutes. The reaction was stopped with 50 μl of 2% (v/v) H3PO4, plates were aspirated and washed two times with 200 μl 0.9% (w/v) NaCl. Incorporation of ^33Pi was determined with a microplate scintillation counter (Microbeta, Wallac). All assays were performed with a BeckmanCoulter/SAGIAN™ Core System.
Evaluation of raw data: The median value of the counts in column 1 (n=8) of each assay plate was defined as “low control”. This value reflects unspecific binding of radioactivity to the plate in the absence of a protein kinase but in the presence of the substrate. The median value of the counts in column 7 of each assay plate (n=8) was taken as the “high control”, i.e. full activity in the absence of any inhibitor. The difference between high and low control was taken as 100% activity.
As part of the data evaluation the low control value from a particular plate was subtracted from the high control value as well as from all 80 “compound values” of the corresponding plate. The residual activity (in %) for each well of a particular plate was calculated by using the following formula: Res. Activity (%)=100×[(cpm of compound−low control)/(high control−low control)]
The residual activities for each concentration and the compound IC50 values were calculated using Quattro Workflow V3.1.1 (Quattro Research GmbH, Munich, Germany).

CDK12 wt/CycK, sequence (Q9NYV4 whole entry): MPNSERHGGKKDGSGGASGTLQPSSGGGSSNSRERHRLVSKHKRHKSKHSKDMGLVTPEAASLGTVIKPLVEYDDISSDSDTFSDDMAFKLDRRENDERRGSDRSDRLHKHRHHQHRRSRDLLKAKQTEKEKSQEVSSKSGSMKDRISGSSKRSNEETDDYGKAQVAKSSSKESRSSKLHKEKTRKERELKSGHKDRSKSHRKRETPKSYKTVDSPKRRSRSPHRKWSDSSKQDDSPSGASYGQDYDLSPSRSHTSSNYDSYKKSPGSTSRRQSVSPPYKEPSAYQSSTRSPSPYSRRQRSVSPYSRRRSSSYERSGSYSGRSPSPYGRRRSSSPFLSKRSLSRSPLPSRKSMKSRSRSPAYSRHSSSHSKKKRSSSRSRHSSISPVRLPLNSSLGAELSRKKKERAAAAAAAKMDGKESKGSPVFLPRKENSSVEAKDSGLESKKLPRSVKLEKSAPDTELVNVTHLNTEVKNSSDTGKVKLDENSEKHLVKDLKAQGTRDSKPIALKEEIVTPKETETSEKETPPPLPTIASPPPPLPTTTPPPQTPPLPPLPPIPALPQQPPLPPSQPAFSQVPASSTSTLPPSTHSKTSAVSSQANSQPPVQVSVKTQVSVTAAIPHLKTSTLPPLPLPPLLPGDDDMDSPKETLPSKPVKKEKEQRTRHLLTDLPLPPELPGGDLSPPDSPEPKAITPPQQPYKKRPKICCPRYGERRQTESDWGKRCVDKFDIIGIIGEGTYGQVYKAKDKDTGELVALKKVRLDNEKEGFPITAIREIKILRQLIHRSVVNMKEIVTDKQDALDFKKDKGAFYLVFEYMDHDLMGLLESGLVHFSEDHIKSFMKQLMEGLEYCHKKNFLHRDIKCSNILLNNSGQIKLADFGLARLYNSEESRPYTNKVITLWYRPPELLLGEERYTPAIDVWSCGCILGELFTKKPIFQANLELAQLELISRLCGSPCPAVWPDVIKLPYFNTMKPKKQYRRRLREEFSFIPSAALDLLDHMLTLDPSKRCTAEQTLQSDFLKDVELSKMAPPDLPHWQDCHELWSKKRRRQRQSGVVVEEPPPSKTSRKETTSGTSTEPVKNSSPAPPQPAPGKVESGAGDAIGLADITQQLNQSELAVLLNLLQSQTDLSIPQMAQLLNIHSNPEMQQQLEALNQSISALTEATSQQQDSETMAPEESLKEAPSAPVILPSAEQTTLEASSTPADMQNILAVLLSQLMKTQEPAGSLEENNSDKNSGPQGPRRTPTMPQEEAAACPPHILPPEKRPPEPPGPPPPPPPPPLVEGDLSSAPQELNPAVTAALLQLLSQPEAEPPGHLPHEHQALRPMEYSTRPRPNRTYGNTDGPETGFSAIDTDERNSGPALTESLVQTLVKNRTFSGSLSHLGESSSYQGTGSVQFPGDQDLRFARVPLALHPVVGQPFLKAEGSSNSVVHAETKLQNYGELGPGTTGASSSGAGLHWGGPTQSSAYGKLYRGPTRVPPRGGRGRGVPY
CDK12 wt/CycK, sequence (O75909 whole entry partner): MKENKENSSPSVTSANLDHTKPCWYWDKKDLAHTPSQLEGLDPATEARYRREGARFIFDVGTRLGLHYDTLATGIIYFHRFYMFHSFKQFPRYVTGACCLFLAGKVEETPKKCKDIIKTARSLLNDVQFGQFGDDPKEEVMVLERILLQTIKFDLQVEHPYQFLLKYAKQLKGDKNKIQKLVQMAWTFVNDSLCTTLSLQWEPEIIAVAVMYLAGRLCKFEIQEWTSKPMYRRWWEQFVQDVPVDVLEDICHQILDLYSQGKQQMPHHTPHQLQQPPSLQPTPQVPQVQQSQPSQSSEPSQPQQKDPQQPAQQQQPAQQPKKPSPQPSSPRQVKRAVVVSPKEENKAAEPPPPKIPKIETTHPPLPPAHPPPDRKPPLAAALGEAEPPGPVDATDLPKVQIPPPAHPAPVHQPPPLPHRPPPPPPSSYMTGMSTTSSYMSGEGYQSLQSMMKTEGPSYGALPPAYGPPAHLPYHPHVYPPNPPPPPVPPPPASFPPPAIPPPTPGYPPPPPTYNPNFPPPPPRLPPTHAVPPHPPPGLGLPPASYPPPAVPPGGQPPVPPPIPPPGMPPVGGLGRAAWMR

SMILES | IC50
C=CC(=O)Nc1ccc(C(=O)N2CC[C@@H](Nc3ncc(Cl)c(OCC)n3)C2)cc1OCCN(C)C [Example 144, (R)—N-(4-(3-((5-chloro-4-ethoxypyrimidin-2-yl)amino)pyrrolidine-1-carbonyl)-2-(2-(dimethylamino)ethoxy)phenyl)acrylamide] | < 100 nM
C=CC(=O)Nc1ccc(C(=O)N2CC[C@@H](Nc3ccc(C#N)cn3)C2)cc1 [Example 147, (R)—N-(4-(3-((5-cyanopyridin-2-yl)amino)pyrrolidine-1-carbonyl)phenyl)acrylamide] | 100 to 1000 nM
[2H]C([2H])([2H])Oc1nc(N[C@@H]2CCN(C(=O)c3ccc(NC(=O)C#C)cc3)C2)ncc1Cl [Example 154, (R)—N-(4-(3-((5-chloro-4-(trideuteromethoxy)pyrimidin-2-yl)amino)pyrrolidine-1-carbonyl)phenyl)propiolamide] | < 100 nM
C=CC(=O)Nc1ccc(C(=O)N2CC[C@@H](Nc3ncc(Br)cn3)C2)cc1OCCN1CCOCC1 [Example 156, (R)—N-(4-(3-((5-bromopyrimidin-2-yl)amino)pyrrolidine-1-carbonyl)-2-(2-morpholinoethoxy)phenyl)acrylamide] | 100 to 1000 nM

Same assay, conditions: thiol containing conditions (1.2 mM DTT), ATP 0.3 μM; read-out: CDK12 IC50 Condition A

IC50 | SMILES
100 to 1000 nM | C/C=C/C(=O)Nc1ccc(C(=O)N2CC[C@@H](Nc3ncc(Cl)cn3)C2)cc1 [Example 131, (R,E)-N-(4-(3-((5-chloropyrimidin-2-yl)amino)pyrrolidine-1-carbonyl)phenyl)but-2-enamide]
1000 to 10000 nM | C=CC(=O)N1CCc2cc(C(=O)N3CC[C@@H](Nc4ncc(Cl)cn4)C3)ccc2C1 [Example 132, (R)-1-(6-(3-((5-chloropyrimidin-2-yl)amino)pyrrolidine-1-carbonyl)-3,4-dihydroisoquinolin-2(1H)-yl)prop-2-en-1-one]
100 to 1000 nM | N#CCC(=O)Nc1ccc(C(=O)N2CC[C@@H](Nc3ncc(Cl)cn3)C2)cc1 [Example 133, (R)—N-(4-(3-((5-chloropyrimidin-2-yl)amino)pyrrolidine-1-carbonyl)phenyl)-2-cyanoacetamide]
100 to 1000 nM | CN(C)/C=C(\C#N)C(=O)Nc1ccc(C(=O)N2CC[C@@H](Nc3ncc(Cl)cn3)C2)cc1 [Example 134, (R)—N-(4-(3-((5-chloropyrimidin-2-yl)amino)pyrrolidine-1-carbonyl)phenyl)-2-cyano-3-(dimethylamino)acrylamide]
1000 to 10000 nM | CN(C)C=C(C#N)C(=O)Nc1cccc(C(=O)N2CC[C@@H](Nc3ncc(Cl)cn3)C2)c1 [Example 135, (R)—N-(3-(3-((5-chloropyrimidin-2-yl)amino)pyrrolidine-1-carbonyl)phenyl)-2-cyano-3-(dimethylamino)acrylamide]
< 100 nM | C=CC(=O)Nc1ccc(C(=O)N2CC[C@@H](Nc3ncc(Cl)c(OCCO)n3)C2)cc1 [Example 137, (R)—N-(4-(3-((5-chloro-4-(2-hydroxyethoxy)pyrimidin-2-yl)amino)pyrrolidine-1-carbonyl)phenyl)acrylamide]
< 100 nM | [2H]c1nc(N[C@@H]2CCN(C(=O)c3ccc(NC(=O)C=C)cc3)C2)nc(OC([2H])([2H])[2H])c1Cl [Example 138, (R)—N-(4-(3-((5-chloro-4-deutero-6-(trideuteromethoxy)pyrimidin-2-yl)amino)pyrrolidine-1-carbonyl)phenyl)acrylamide]
1000 to 10000 nM | O=C(Nc1ccc(C(=O)N2CC[C@@H](Nc3ncc(Cl)cn3)C2)cc1)C1CO1 (stereo partly drawn) [Example 141, N-(4-((R)-3-((5-chloropyrimidin-2-yl)amino)pyrrolidine-1-carbonyl)phenyl)oxirane-2-carboxamide]
1000 to 10000 nM | COc1nc(N[C@@H]2CCN(C(=O)c3ccc(NC(=O)C4CO4)cc3)C2)ncc1Cl (stereo partly drawn) [Example 142, N-(4-((R)-3-((5-chloro-4-methoxypyrimidin-2-yl)amino)pyrrolidine-1-carbonyl)phenyl)oxirane-2-carboxamide]
< 100 nM | C=CC(=O)Nc1ccc(C(=O)N2CC[C@@H](Nc3ncc(Cl)c(OCC)n3)C2)cc1OC1CCOC1 (stereo partly drawn) [Example 143, N-(4-((R)-3-((5-chloro-4-ethoxypyrimidin-2-yl)amino)pyrrolidine-1-carbonyl)-2-((tetrahydrofuran-3-yl)oxy)phenyl)acrylamide]
100 to 1000 nM | C=CC(=O)Nc1ccc(C(=O)N2CC[C@@H](Nc3ncc(C#N)cn3)C2)cc1 [Example 148, (R)—N-(4-(3-((5-cyanopyrimidin-2-yl)amino)pyrrolidine-1-carbonyl)phenyl)acrylamide]
100 to 1000 nM | C/C=C/C(=O)Nc1ccc(C(=O)N2CC[C@@H](Nc3ncc(Cl)c(OC)n3)C2)nc1 [Example 150, (R,E)-N-(6-(3-((5-chloro-4-methoxypyrimidin-2-yl)amino)pyrrolidine-1-carbonyl)pyridin-3-yl)but-2-enamide]
< 100 nM | C=CC(=O)Nc1ccc(C(=O)N2CC[C@@H](Nc3ncc(Cl)c(OCC)n3)C2)nc1 [Example 152, (R)—N-(6-(3-((5-chloro-4-ethoxypyrimidin-2-yl)amino)pyrrolidine-1-carbonyl)pyridin-3-yl)acrylamide]
10000 to 30000 nM | C=CC(=O)Nc1ccc(C(=O)N2CC[C@H](Nc3ncc(Cl)cn3)C2)cc1 [Example 155, (S)—N-(4-(3-((5-chloropyrimidin-2-yl)amino)pyrrolidine-1-carbonyl)phenyl)acrylamide]
10000 to 30000 nM | C=CC(=O)Nc1ccc(C(=O)N2CC[C@@H](Nc3ncc(C#N)c(OC)n3)C2)cc1 [Example 160, (R)—N-(4-(3-((5-cyano-4-methoxypyrimidin-2-yl)amino)pyrrolidine-1-carbonyl)phenyl)acrylamide]

SMILES | IC50
C=CC(=O)N1CCc2ccc(C(=O)N3CC[C@@H](Nc4ncc(Cl)cn4)C3)cc2C1 [Example 130, (R)-1-(7-(3-((5-chloropyrimidin-2-yl)amino)pyrrolidine-1-carbonyl)-3,4-dihydroisoquinolin-2(1H)-yl)prop-2-en-1-one] | 100 to 1000 nM
C=CC(=O)N1CCc2ccc(C(=O)N3CC[C@@H](Nc4ncc(Cl)cn4)C3)cc21 [Example 136, (R)-1-(6-(3-((5-chloropyrimidin-2-yl)amino)pyrrolidine-1-carbonyl)indolin-1-yl)prop-2-en-1-one] | 100 to 1000 nM
O=C(c1ccc(N2C(=O)C=CC2=O)cc1)N1CC[C@@H](Nc2ncc(Cl)cn2)C1 [Example 140, (R)-1-(4-(3-((5-chloropyrimidin-2-yl)amino)pyrrolidine-1-carbonyl)phenyl)-1H-pyrrole-2,5-dione] | 1000 to 10000 nM
CC#CC(=O)Nc1ccc(C(=O)N2CC[C@@H](Nc3ncc(Cl)c(OC)n3)C2)cc1 [Example 151, (R)—N-(4-(3-((5-chloro-4-methoxypyrimidin-2-yl)amino)pyrrolidine-1-carbonyl)phenyl)but-2-ynamide] | < 100 nM
C=CC(=O)Nc1ccc(C(=O)N2CC[C@@H](Nc3ncc(Cl)c(OCCOCC)n3)C2)cc1 [Example 153, (R)—N-(4-(3-((5-chloro-4-(2-ethoxyethoxy)pyrimidin-2-yl)amino)pyrrolidine-1-carbonyl)phenyl)acrylamide] | 100 to 1000 nM
C=CC(=O)Nc1ccc(C(=O)N2CC[C@@H](Nc3ncc(Br)cn3)C2)cc1N1CCC(N(C)C)CC1 [Example 158, (R)—N-(4-(3-((5-bromopyrimidin-2-yl)amino)pyrrolidine-1-carbonyl)-2-(4-(dimethylamino)piperidin-1-yl)phenyl)acrylamide] | 100 to 1000 nM
C=CC(=O)Nc1ccc(C(=O)N2CC[C@@H](Nc3ncc(Br)cn3)C2)cc1N(C)CCN(C)C [Example 159, (R)—N-(4-(3-((5-bromopyrimidin-2-yl)amino)pyrrolidine-1-carbonyl)-2-((2-(dimethylamino)ethyl)(methyl)amino)phenyl)acrylamide] | 1000 to 10000 nM
